In one test the target is T1, guinea pig liver TGase 2 (UniProt P08587).
T1 construct: gene TGM2
T1 sequence (P08587 2-690): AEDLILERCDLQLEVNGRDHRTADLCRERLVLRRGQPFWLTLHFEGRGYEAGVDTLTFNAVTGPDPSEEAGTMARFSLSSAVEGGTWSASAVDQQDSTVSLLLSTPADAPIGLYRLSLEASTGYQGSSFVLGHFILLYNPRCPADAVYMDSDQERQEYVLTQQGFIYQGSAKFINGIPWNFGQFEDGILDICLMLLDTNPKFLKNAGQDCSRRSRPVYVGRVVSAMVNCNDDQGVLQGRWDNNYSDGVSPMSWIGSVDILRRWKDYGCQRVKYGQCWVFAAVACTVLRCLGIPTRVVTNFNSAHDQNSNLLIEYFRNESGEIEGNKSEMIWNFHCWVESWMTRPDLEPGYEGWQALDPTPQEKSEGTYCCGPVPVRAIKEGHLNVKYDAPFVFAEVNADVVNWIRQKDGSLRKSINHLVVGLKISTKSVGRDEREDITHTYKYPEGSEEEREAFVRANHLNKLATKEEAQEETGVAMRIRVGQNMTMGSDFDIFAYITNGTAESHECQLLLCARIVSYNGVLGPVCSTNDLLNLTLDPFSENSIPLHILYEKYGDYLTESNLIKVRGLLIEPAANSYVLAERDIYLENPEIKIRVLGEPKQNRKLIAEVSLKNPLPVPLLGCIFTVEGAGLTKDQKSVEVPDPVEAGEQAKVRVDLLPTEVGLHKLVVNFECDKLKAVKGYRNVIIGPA
The test is described as follows: succinylated casein / […]-putrescine incorporation assay. In kind it is biochemical, Cavia cutleri.

The target in test [1] is T2, transglutaminase 2 (TGase 2) (Homo sapiens, UniProt P21980).
T2 construct: gene TGM2; recombinant human TGase 2, polyhistidine-tagged
T2 sequence (P21980 2-687): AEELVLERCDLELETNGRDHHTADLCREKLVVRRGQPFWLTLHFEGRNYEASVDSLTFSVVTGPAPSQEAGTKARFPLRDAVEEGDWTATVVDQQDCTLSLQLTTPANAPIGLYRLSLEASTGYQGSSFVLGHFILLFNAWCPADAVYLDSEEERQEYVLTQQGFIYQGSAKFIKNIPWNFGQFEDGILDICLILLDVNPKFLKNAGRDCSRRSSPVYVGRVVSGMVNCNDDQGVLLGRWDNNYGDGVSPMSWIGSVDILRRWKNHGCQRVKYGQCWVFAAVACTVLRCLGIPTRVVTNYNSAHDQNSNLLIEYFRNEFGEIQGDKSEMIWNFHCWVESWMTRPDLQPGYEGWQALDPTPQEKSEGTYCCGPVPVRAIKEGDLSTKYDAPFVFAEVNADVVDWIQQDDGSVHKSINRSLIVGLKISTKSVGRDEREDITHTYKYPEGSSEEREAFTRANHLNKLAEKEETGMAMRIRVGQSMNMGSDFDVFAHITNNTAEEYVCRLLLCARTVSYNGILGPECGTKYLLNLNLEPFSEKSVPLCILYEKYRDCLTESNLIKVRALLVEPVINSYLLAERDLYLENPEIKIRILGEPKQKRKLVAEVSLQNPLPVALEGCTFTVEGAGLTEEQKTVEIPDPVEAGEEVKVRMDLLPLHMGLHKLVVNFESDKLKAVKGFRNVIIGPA
Put plainly: SPR (ProteOn XPR36); MS peptide masking supports the site. The format is binding.

Test [2] addresses T3, TGase 2 (as run on native gels), P21980.
T3 chain: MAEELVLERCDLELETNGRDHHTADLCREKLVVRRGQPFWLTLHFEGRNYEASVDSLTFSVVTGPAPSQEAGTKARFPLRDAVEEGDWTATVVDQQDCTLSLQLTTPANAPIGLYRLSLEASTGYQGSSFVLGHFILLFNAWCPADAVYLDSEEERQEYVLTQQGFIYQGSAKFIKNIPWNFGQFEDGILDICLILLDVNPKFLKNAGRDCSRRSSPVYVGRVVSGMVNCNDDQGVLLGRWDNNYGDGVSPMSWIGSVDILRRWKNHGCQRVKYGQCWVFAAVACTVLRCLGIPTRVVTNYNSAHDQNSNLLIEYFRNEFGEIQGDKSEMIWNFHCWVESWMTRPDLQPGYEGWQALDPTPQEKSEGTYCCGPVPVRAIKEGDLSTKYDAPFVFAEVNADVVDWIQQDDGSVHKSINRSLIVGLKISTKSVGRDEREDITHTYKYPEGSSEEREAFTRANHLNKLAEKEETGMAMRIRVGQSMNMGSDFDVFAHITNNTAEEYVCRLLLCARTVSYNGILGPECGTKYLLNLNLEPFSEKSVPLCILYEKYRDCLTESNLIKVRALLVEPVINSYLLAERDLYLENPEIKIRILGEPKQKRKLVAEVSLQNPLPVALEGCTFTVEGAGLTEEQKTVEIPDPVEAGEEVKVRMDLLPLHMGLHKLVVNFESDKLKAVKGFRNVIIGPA
The test is described as follows: native gel or EMSA; TGase 2 incubated with streptonigrin or GTP, 37 °C; native gel, immunoblot of TGase 2; monomer to dimer. To be noted: remark: other sources report otherwise. (In EMSA bound probe runs differently from free probe, usually more slowly.)

In turn, `COC1=C(N)C(=O)c2nc(-c3nc(C(=O)O)c(C)c(-c4ccc(OC)c(OC)c4O)c3N)ccc2C1=O` [streptonigrin] had an IC50 on guinea pig liver TGase 2 of 1700 nM. The same molecule had a dissociation constant (Kd) in test [1] of about 700 nM.

B1: TGase 2 (as run on native gels), P21980 1-687 (enzyme)
chain: MAEELVLERCDLELETNGRDHHTADLCREKLVVRRGQPFWLTLHFEGRNYEASVDSLTFSVVTGPAPSQEAGTKARFPLRDAVEEGDWTATVVDQQDCTLSLQLTTPANAPIGLYRLSLEASTGYQGSSFVLGHFILLFNAWCPADAVYLDSEEERQEYVLTQQGFIYQGSAKFIKNIPWNFGQFEDGILDICLILLDVNPKFLKNAGRDCSRRSSPVYVGRVVSGMVNCNDDQGVLLGRWDNNYGDGVSPMSWIGSVDILRRWKNHGCQRVKYGQCWVFAAVACTVLRCLGIPTRVVTNYNSAHDQNSNLLIEYFRNEFGEIQGDKSEMIWNFHCWVESWMTRPDLQPGYEGWQALDPTPQEKSEGTYCCGPVPVRAIKEGDLSTKYDAPFVFAEVNADVVDWIQQDDGSVHKSINRSLIVGLKISTKSVGRDEREDITHTYKYPEGSSEEREAFTRANHLNKLAEKEETGMAMRIRVGQSMNMGSDFDVFAHITNNTAEEYVCRLLLCARTVSYNGILGPECGTKYLLNLNLEPFSEKSVPLCILYEKYRDCLTESNLIKVRALLVEPVINSYLLAERDLYLENPEIKIRILGEPKQKRKLVAEVSLQNPLPVALEGCTFTVEGAGLTEEQKTVEIPDPVEAGEEVKVRMDLLPLHMGLHKLVVNFESDKLKAVKGFRNVIIGPA
In test [2], B1 had a fold increase in the density of the dimer band after streptonigrin treatment of 2.4 fold and a stoichiometry N of 2.

Usually IC50 stands for the concentration that inhibits the measured activity by half. Lower therefore signals greater potency. What is called Kd is the equilibrium constant for the complex coming apart. Lower therefore signals higher affinity. The term stoichiometry N denotes the number of molecules, sites or subunits per partner or assembly.
